Measured values: patent publication US10561638B2, “Methods for treating dependence” (Biotie Therapies, Inc., priority 2007, dated 2020)

Biological target: T1, human dopamine β-hydroxylase (Homo sapiens, UniProt P09172)
T1 construct: Human secretory DBH was purified from the culture medium of the neuroblastoma cell line SK-N-SH; endogenous in cells; host or cells: SK-N-SH neuroblastoma cells (enzyme secreted into the culture medium, purified on lentil lectin-sepharose)
T1 sequence (P09172 40-617 limits assumed): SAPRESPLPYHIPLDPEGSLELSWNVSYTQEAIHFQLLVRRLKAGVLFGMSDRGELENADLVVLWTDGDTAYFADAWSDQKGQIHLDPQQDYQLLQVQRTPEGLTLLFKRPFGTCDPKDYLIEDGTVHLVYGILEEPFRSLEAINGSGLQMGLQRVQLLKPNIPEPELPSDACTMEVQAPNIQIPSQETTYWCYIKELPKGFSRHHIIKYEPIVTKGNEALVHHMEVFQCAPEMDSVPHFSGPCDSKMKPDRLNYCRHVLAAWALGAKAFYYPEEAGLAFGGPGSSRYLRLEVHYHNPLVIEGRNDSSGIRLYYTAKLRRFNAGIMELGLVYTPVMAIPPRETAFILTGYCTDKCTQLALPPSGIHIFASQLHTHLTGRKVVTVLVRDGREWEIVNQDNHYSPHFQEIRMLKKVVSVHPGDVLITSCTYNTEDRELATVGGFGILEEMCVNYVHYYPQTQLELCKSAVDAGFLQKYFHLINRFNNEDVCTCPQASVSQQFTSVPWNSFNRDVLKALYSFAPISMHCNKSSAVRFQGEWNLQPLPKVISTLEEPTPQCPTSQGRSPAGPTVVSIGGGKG
Assay: DBH assay, conversion of tyramine to octopamine
Format: biochemical
Protocol: Bovine and human dopamine β-hydroxylase activity were assayed by measuring the conversion of tyramine to octopamine. Bovine adrenal dopamine β-hydroxylase was obtained from Sigma Chemicals (St Louis, Mo., USA) whereas human dopamine β-hydroxylase was purified from the culture medium of the neuroblastoma cell line SK-N-SH. The assay was performed at pH 5.2 and 32° C. in a medium containing 0.125 M NaAc, 10 mM fumarate, 0.5-2 μM CuSO4, 0.1 mg·ml^−1 catalase, 0.1 mM tyramine and 4 mM ascorbate. In a typical assay, 0.5-1 milliunits of enzyme were added to the reaction mixture and, subsequently, a substrate mixture containing catalase, tyramine and ascorbate was added to initiate the reaction (final volume of 200 μl). Samples were incubated with or without the appropriate concentration of nepicastat or Compound B at 37° C. for 30 to 40 minutes. The reaction was quenched by the stop solution containing 25 mM EDTA and 240 μM 3-hydroxytyramine (internal standard). The samples were analyzed for octopamine by reverse phase high pressure liquid chromatography (HPLC) using ultraviolet-detection at […]. The HPLC chromatography run was carried out at the flow rate of 1 ml·min^−1 using a LiChroCART 125-4 RP-18 column and isocratic elution with 10 mM acidic acid, 10 mM 1-heptane sulfonic acid, 12 mM tetrabutyl ammonium phosphate and 10% methanol. The remaining percent activity was calculated based on controls, corrected using internal standards and fitted to a non-linear four-parameter concentration-response curve.
DBH activity was assayed by measuring the conversion of tyramine to octopamine. Bovine DBH from adrenal glands was obtained from Sigma Chemical Co (St Louis, Mo.). Human secretory DBH was purified from the culture medium of the neuroblastoma cell line SK-N-SH. The assay was performed at pH 5.2 and 32° C. in 0.125 M NaOAc, 10 mM fumarate, 0.5-2 μM CUSO4, 0.1 mg/mL catalase, 0.1 mM tyramine and 4 mM ascorbate. In a typical assay, 0.5-1 milliunits of enzyme were added to the reaction mixture and then a substrate mixture containing catalase, tyramine and ascorbate was added to initiate the reaction (final volume of 200 μL). Samples were incubated with or without the appropriate concentration of the inhibitor at 37° C. for 30-40 min. The reaction was quenched by the stop solution containing 25 mM EDTA and 240 μM 3-hydroxytyramine (internal standard). The samples were analyzed for octopamine by reverse phase HPLC using UV detection at […]. The remaining percent activity was calculated based on controls (without inhibitor), corrected using internal standards and fitted to a non-linear 4-parameter concentration-response curve to obtain IC50 values.
Bovine DBH from adrenal glands was obtained from Sigma Chemicals (St. Louis, Mo.). Human secretory DBH was purified from the culture medium of the neuroblastoma cell line SK-N-SH and was used to obtain the inhibition data. A lentil lectin-sepharose column containing 25 ml gel was prepared and equilibrated with 50 mM KH2PO4, pH 6.5, 0.5 M NaCl. The column was eluted with 35 ml of 10% methyl a, D-mannopyranoside in 50 mM KH2PO4, pH 6.5, 0.5 M NaCl at 0.5 ml/min. Fraction containing most enzymatic activities were pooled and concentrated with an Amicon stirred cell using a YM30 membrane. Methyl a, D-mannopyranoside was removed by buffer exchange with in 50 mM KH2PO4, pH 6.5, 0.1M NaCl. The concentrated enzyme solution was aliquoted and stored at −25° C.
An HPLC assay was used to measure DBH activity using tyramine and ascorbate as substrates. […]

Structure (SMILES) | IC50 (0.1 mM tyramine, 4 mM ascorbate, pH 5.2) [nM] | selectivity for dopamine-β-hydroxylase over the other enzymes studied [fold] | potency of nepicastat relative to SKF-102698 (human DBH) [fold] | potency of nepicastat relative to SKF-102698 (human and bovine DBH) | potency of nepicastat relative to the R-enantiomer (human and bovine DBH) | potency of nepicastat relative to Compound B (human enzyme) [fold]
Fc1cc(F)cc(Cn2cc[nH]c2=S)c1 [SKF-102698, reference compound] | 85 ± 3.7 | – | – | – | – | –
Cl.NCc1c[nH]c(=S)n1[C@H]1CCc2c(F)cc(F)cc2C1 [nepicastat, (S)-5-Aminomethyl-1-(5,7-difluoro-1,2,3,4-tetrahydronaphth-2-yl)-2,3-dihydro-2-thioxo-1H-imidazole hydrochloride] | – | > 1000 | 9 | 8-9 fold | 2-3 fold | 2
